Measured values published in patent US20070134286A1, “Methods for reducing intimal hyperplasia, smooth muscle cell proliferation and restenosis in mammals” (priority 2004, published 2007).
Where two headings read alike, the source gives them in different places.

Key:
[1] = tested on: plasminogen activator inhibitor type-1 (PAI-1); assay: SDS-PAGE and Western blot of PAI-1 in CASMC; type: cell-based, human; settings: Western blot, FIG. 6
Protocol: SDS-PAGE and Western Blot Analysis: Cells (1×10^6 cells per sample) pretreated with or without test agents were solubilized in 50 μl of SDS-PAGE sample buffer (Sigma, St. Louis, Mo.), and the protein content in each sample was determined by the Pierce (Rockford, Ill.) BCA protein assay. Samples were resolved by SDS-PAGE using a 4-12% NuPAGE gel (Invitrogen, Carlsbad, Calif.), and proteins were electrophoretically transferred to polyvinylidene fluoride (hereinafter “PVDF”) membrane for Western blotting. The membrane was blotted for 1 hour at 25° C. with 5% nonfat dry milk in PBS-T and then incubated with a mouse anti-PAI-1 monoclonal antibody (1000-fold dilution, Santa Cruz Biotechnology, Santa Cruz, Calif.) in PBS-T overnight at 4° C. The membrane was washed with PBS-T and incubated with a horseradish peroxidase-labeled anti-mouse antibody for 1 hour at 25° C. The membrane was then incubated with detection reagent (SuperSignal WestPico, Pierce, Rockford, Ill.). Specific bands were visualized by exposing the paper to Kodak BioMax films.

VDR = settings: 0.1 μM, CASMC in growth medium, not all cells responded, FIG. 2
WT1 = assay: Real-time RT-PCR, WT1 mRNA expression in smooth muscle cells; type: cell-based; settings: Homo sapiens, normalized to GAPDH, FIG. 7, read-out: EC50 on WT1 mRNA expression (up-regulation)
Protocol: (§1) Primers and probes for Real-time Reverse Transcription-PCR: For quantitative PCR (qPCR), TaqMan™ probes that were 5′ labeled with the reporter 6-carboxyfluorescein (FAM) and 3′ labeled with the quencher tetramethylrhodamine (TAMRA) were used. The primer and probe sets were obtained from the Assay-on-Demand collection (Applied Biosytsems).
(§2) Real-time Reverse Transcription-PCR: PCR was performed with a 7900HT sequence detector (Applied Biosytsems). Each sample has a final volume of 25 μl containing 50 ng of cDNA, […] each of the forward and reverse PCR primers and […] of the TaqMan™ probe. Temperature conditions consisted of a step of 5 minutes at 95° C., followed by 40 cycles of 60° C. for 1 minute and 95° C. for 15 seconds. Data was collected during each extension phase of the PCR reaction and analyzed with the SDS software package (Applied Biosystems). Threshold cycles were determined for each gene. The expression level of target gene of interest was given as relative expression normalized against glyceraldehyde-3-phosphate dehydrogenase (GAPDH).

TGFβ3 = assay: Real-time RT-PCR, TGFβ3 mRNA expression in smooth muscle cells; type: cell-based; settings: Homo sapiens, normalized to GAPDH, FIG. 7, read-out: EC50 on TGFβ3 mRNA expression (up-regulation)
Protocol: as §1, §2

[2] = tested on: human coronary artery smooth muscle cells; assay: 3H-thymidine incorporation (DNA synthesis / cell proliferation); type: cell-based
Protocol: One day after plating, the cells were treated with test agents for 24 hours and then labeled with 0.3 μCi/well of ^3H-thymidine for another 48 hours. Each well was washed with 0.3 ml/well of PBS, incubated with 0.2 ml/well of ice-cold 10% trichloroacetic acid (hereinafter “TCA”) for 30 minutes at 4° C., and then followed by another wash of 0.2 ml/well of TCA. Samples were dissolved in MICROSCINT™ 20 before counting. Data shown are mean ± the standard deviation (n=4).
Thymidine incorporation: Cells were plated at 1×10^6 cells/ml, 200 μl/well into 96-well plates (Costar). One day after plating, the cells were treated with test agents for 24 hr and then labeled with 0.3 μCi/well of ^3H-thymidine for another 48 hr. Each well was washed with 0.3 ml/well of PBS, incubated with 0.2 ml/well of ice-cold 10% trichloroacetic acid (TCA) for 30 min at 4° C., and then followed by another wash of 0.2 ml/well of TCA. Samples were dissolved in MICROSCINT™ 20 (Packard) before counting.

IGF1 = assay: Real-time RT-PCR, IGF1 mRNA expression in smooth muscle cells; type: cell-based; settings: Homo sapiens, normalized to GAPDH, FIG. 7, read-out: EC50 on IGF1 mRNA expression (up-regulation)
Protocol: as §1, §2

[3] = tested on: primary culture of human coronary artery smooth muscle cells; assay: Affymetrix U133Av2 microarray gene expression; type: cell-based; settings: 100 nM, 30 hr, ratio to no-drug control
Protocol: Microarray: […] While the yield of total RNA was low ([…] total per sample), the RNAs were intact as judged by Agilent 2100 analysis. One μg of total RNA from each sample was used to prepare biotin-labeled cRNA target using standard Affymetrix protocols. Prepared cRNA targets were of good quality and quantity. The Affymetrix Human chip U133Av2 was used (22,000+ probe sets) and 10 μg cRNA target was applied to each array. […] Scanned images were loaded into the Rosetta Resolver 4.0 database and processed using the Resolver Affymetrix error model. Within Resolver the drug treated sample replicates (n=3) were informatically combined and ratios constructed relative to the combined control (no addition of drug) samples. The Resolver Affymetrix error model was used to develop each ratio and calculate a p-value. The Resolver error model is robust and includes reporter level, background and error values in the calculation of statistical significance. A combination of hierarchical clustering, gene ontology analysis and pathway mapping were used to assess the function of the regulated genes.

C[C@H](/C=C/[C@H](C)C(C)(C)O)[C@H]1CC[C@H]2/C(=C/C=C3C[C@@H](O)C[C@H](O)C3)CCC[C@]12C [paricalcitol, 19-nor-1α,3β,25-trihydroxy-9,10-secoergosta-5(Z); 7(E),22(E)-triene]
potency in reducing PAI-1 level / inhibiting PAI-1 expression [1]: as potent as calcitriol | VDR translocation (confocal microscopy) (VDR): VDR translocated into the nucleus | EC50 (WT1): 29.7 nM | EC50 (TGFβ3): 10.6 nM | EC50 ([2]; Homo sapiens, Example 1, CASMC, FIG. 4, read-out: EC50 inhibiting DNA synthesis ([3H]-thymidine incorporation)): 0.044 ± 0.004 nM | EC50 ([2]; Homo sapiens, Example 2, FIG. 8, read-out: EC50 inhibition of 3H-thymidine incorporation): 0.2 nM | inhibition at 0.01 µM ([2]; Homo sapiens, Example 2, at 10 nM, compared to cells in growth medium): 46% | EC50 (IGF1): 0.2 nM | FC CD1D antigen, d polypeptide (205789_at) [3]: 5.38 | FC CDK5 regulatory subunit associated protein 2 (220935_s_at) [3]: 2.91 | FC Kruppel-like factor 4 (gut) (220266_s_at) [3]: 2.37 | FC PMS2 postmeiotic segregation increased 2 (S. cerevisiae) (209805_at) [3]: 2.18 | FC Wilms tumor 1 (206067_s_at) [3]: 3.32 | FC Wilms tumor 1 (216953_s_at) [3]: 4.64 | FC Wilms tumor associated protein (206954_at) [3]: 2.72 | FC basic helix-loop-helix domain containing, class B, 3 (221530_s_at) [3]: −1.80 | FC cholecystokinin B receptor (210381_s_at) [3]: −3.04 | FC cyclin F (204827_s_at) [3]: −2.75 | FC cysteine and glycine-rich protein 2 (207030_s_at) [3]: −2.18 | FC cysteine and glycine-rich protein 2 (211126_s_at) [3]: −2.33 | FC ecotropic viral integration site 2A (204774_at) [3]: −2.49 | FC fibroblast growth factor 9 (glia-activating factor) (206404_at) [3]: 1.88 | FC insulin-like growth factor 1 (somatomedin C) (209540_at) [3]: 4.89 | FC insulin-like growth factor 1 (somatomedin C) (209541_at) [3]: 2.63 | FC insulin-like growth factor 1 (somatomedin C) (209542_x_at) [3]: 3.24 | FC insulin-like growth factor 1 (somatomedin C) (211577_s_at) [3]: 3.43 | FC mitogen-activated protein kinase 13 (210058_at) [3]: 2.40 | FC mitogen-activated protein kinase 13 (210059_s_at) [3]: 3.26 | FC myosin heavy polypeptide 10, non-muscle (213067_at) [3]: −1.80 | FC putative lymphocyte G0/G1 switch gene (213524_s_at) [3]: 3.46 | FC retinoblastoma-like 2 (p130) (212332_at) [3]: −1.37 | FC suppressor of cytokine signaling 2 (203372_s_at) [3]: −2.70 | FC suppressor of cytokine signaling 2 (203373_at) [3]: −2.39 | FC tetraspan 1 (209114_at) [3]: −1.79 | FC transforming growth factor, beta 2 (209909_s_at) [3]: 2.48 | FC transforming growth factor, beta 2 (220407_s_at) [3]: 1.88 | FC transforming growth factor, beta 3 (209747_at) [3]: 2.80 | FC angiopoietin 1 (NM_001146) ([3]; Table 4): 1.7 | FC coagulation factor II (thrombin) receptor-like 1 (NM_005242) ([3]; Table 4): −2.1 | FC endothelin receptor type B (NM_000115) ([3]; Table 4): 2.3 | FC fibroblast growth factor 9 (glia-activating factor) (NM_002010) ([3]; Table 4): 1.9 | FC fibroblast growth factor receptor 3 (achondroplasia, thanatophoric dwarfism) (NM_000142) ([3]; Table 4): 3.4 | FC insulin-like growth factor 1 (somatomedin C) (NM_000618) ([3]; Table 4): 2.5 | FC matrix metalloproteinase 14 (membrane-inserted) (NM_004995) ([3]; Table 4): 1.1 | FC natriuretic peptide precursor B (NM_002521) ([3]; Table 4): −2.5 | FC oxytocin receptor (NM_000916) ([3]; Table 4): −2.6 | FC phospholamban (NM_002667) ([3]; Table 4): −2.4 | FC prostaglandin-endoperoxide synthase 1 (prostaglandin G/H synthase and cyclooxygenase) (NM_000962) ([3]; Table 4): 2.0 | FC thrombomodulin (NM_000361) ([3]; Table 4): 3.0 | FC thrombospondin 1 (AI812030) ([3]; Table 4): −2.7 | FC transforming growth factor, beta 2 (NM_003238) ([3]; Table 4): 2.5 | FC transforming growth factor, beta 3 (J03241) ([3]; Table 4): 2.9

CC(=O)O[C@H]1C(=O)[C@@]2(C)[C@H]([C@H](OC(=O)c3ccccc3)[C@]3(O)C[C@H](OC(=O)[C@H](O)[C@@H](NC(=O)c4ccccc4)c4ccccc4)C(C)=C1C3(C)C)[C@]1(OC(C)=O)CO[C@@H]1C[C@@H]2O [taxol]
effect on DNA synthesis ([3H]-thymidine incorporation) ([2]; Example 1, even at 0.01 nM, FIG. 3): severely impacted DNA synthesis
